Data on 7 compounds can be found in PMC12029227, “In Vitro Evaluation of Novel Furo[3,2-c]coumarins as Cholinesterases and Monoamine Oxidases Inhibitors” (Molecules, 2025).

SMILES strings stand for the structures. “Also recorded” adds a separate entry of the source. Where two headings read alike, the source gives them in different places.

Series [1] deals with T1, hMAO B (Homo sapiens, UniProt P27338).
T1 construct: purchased Sigma-Aldrich (Milan, Italy)
T1 sequence (P27338 1-520): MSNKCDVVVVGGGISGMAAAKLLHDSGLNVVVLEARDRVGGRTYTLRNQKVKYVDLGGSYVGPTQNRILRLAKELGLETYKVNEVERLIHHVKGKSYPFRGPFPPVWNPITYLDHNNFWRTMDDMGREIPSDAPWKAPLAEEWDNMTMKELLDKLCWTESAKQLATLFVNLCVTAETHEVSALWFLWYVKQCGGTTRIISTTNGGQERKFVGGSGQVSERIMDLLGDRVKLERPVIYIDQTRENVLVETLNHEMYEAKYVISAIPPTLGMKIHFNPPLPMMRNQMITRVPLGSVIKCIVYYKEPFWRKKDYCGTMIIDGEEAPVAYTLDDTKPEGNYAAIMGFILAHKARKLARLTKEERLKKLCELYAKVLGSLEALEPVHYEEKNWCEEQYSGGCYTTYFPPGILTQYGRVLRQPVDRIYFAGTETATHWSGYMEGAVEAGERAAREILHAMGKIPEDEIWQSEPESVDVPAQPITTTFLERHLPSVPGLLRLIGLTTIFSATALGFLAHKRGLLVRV
In words: Inhibition of human recombinant MAO B, spectrofluorimetric kynuramine assay. In kind it is biochemical. Particulars: for inhibition at 10 µM: read-out: % Inhibition at 10 μM hMAO B.
Procedure: (§1) All human enzymes, substrates and reagents were from Sigma-Aldrich (Milan, Italy). Experiments were run in 96-well plates from Greiner Bio-One (Kremsmenster, Austria) with an Infinite M1000 Pro multiplate reader (Tecan, Cernusco sul Naviglio, Italy). […] For studies addressing MAOs inhibition the spectrofluorimetric protocol was based on the oxidative deamination of kynuramine to 4-hydroxyquinoline measured in black, flat-bottom polystyrene plates [29]. Incubations were performed in triplicate and results were expressed as the mean ± SEM from 3 independent experiments. The values of IC50 were calculated by nonlinear regressions using GraphPad Prism 5.00 (GraphPad Software, San Diego, CA, USA).

Series [2] has as its target T2, hMAO A (Homo sapiens, UniProt P21397).
T2 construct: purchased Sigma-Aldrich (Milan, Italy)
T2 sequence (P21397 1-527): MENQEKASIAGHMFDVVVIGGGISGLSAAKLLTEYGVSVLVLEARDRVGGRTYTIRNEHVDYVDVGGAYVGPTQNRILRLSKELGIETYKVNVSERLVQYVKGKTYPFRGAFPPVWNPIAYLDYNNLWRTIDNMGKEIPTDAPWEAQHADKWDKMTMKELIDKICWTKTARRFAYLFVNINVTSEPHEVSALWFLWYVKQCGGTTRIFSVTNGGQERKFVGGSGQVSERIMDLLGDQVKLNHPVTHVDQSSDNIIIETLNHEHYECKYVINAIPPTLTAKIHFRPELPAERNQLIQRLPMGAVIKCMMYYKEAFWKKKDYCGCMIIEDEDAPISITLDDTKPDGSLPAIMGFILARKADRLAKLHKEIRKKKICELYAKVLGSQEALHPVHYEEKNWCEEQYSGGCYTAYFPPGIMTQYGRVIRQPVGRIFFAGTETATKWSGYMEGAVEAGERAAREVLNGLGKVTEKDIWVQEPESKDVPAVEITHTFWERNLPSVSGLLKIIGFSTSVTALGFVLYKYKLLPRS
Put plainly: Inhibition of human recombinant MAO A, spectrofluorimetric kynuramine assay. It is filed as biochemical. The settings on record: for inhibition at 10 µM: read-out: % Inhibition at 10 μM hMAO A; for inhibition of MAO A activity (in words): summary of Table 1.
Procedure: as §1

Series [3] addresses T3, hBChE (Homo sapiens, UniProt P06276).
T3 construct: purchased Sigma-Aldrich (Milan, Italy)
Put plainly: biochemical. In kind it is biochemical. Particulars: for inhibition at 10 µM: human BChE, mean ± SEM; for inhibitory activity toward hBChE (in words): summary of Table 1.
Procedure: All human enzymes, substrates and reagents were from Sigma-Aldrich (Milan, Italy). Experiments were run in 96-well plates from Greiner Bio-One (Kremsmenster, Austria) with an Infinite M1000 Pro multiplate reader (Tecan, Cernusco sul Naviglio, Italy). The inhibition of ChEs was determined by following Ellman’s spectrophotometric assay in transparent, flat-bottom plates [18]. […] Incubations were performed in triplicate and results were expressed as the mean ± SEM from 3 independent experiments. The values of IC50 were calculated by nonlinear regressions using GraphPad Prism 5.00 (GraphPad Software, San Diego, CA, USA).

The target of series [4] is T4, hAChE (Homo sapiens, UniProt P22303).
T4 construct: purchased Sigma-Aldrich (Milan, Italy)
T4 sequence (P22303 32-614): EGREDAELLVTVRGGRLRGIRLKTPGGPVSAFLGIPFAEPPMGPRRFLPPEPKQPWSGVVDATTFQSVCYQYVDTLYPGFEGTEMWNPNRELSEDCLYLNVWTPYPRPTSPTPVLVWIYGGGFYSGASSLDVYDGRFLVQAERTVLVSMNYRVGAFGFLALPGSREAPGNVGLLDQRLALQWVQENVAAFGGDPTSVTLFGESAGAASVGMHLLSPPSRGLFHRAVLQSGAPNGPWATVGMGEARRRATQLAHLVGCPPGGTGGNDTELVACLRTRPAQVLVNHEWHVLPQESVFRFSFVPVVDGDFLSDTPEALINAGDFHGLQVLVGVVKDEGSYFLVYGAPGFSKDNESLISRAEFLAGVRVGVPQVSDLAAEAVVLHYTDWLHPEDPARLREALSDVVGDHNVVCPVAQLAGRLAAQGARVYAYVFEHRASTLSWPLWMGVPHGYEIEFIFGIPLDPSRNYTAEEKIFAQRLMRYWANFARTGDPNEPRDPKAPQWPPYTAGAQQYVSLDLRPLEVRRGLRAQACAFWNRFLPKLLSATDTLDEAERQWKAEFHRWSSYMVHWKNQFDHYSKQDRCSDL
Put plainly: biochemical. The settings on record: for IC50: human AChE, mean of three independent experiments ± SEM.
Procedure: All human enzymes, substrates and reagents were from Sigma-Aldrich (Milan, Italy). Experiments were run in 96-well plates from Greiner Bio-One (Kremsmenster, Austria) with an Infinite M1000 Pro multiplate reader (Tecan, Cernusco sul Naviglio, Italy). The inhibition of ChEs was determined by following Ellman’s spectrophotometric assay in transparent, flat-bottom plates [18]. […] Incubations were performed in triplicate and results were expressed as the mean ± SEM from 3 independent experiments. The values of IC50 were calculated by nonlinear regressions using GraphPad Prism 5.00 (GraphPad Software, San Diego, CA, USA). […] Apparent inhibition constants and kinetic parameters were calculated within the “Enzyme kinetics” module of Prism.

Series [5] in a line: Precipitation in the cell assay conditions. The settings on record: 20 μM, SH-SY5Y cell assay conditions. It is filed as physicochemical.
Procedure: The cell viability of human neuroblastoma SH-SY5Y cells was measured as previously reported in ref. [29]. […] Briefly, cells were plated at a concentration of 4.5 × 10^4 cells/well and cultured in Dulbecco’s modified Eagle’s medium (DMEM) high glucose supplemented with 10% (v/v) heat-inactivated fetal bovine serum (FBS), 2 mM L-glutamine, 100 U/mL penicillin, and 100 μg/mL streptomycin at 37 °C in an atmosphere of 5% CO2 in 96 wells/plate. […] Then, cells were incubated for 2 h at 37 °C and 5% CO2 with 0.5 mg/mL of MTT, and the formazan crystals in the cells were solubilized with absolute ethanol. […] Cell viability was expressed as a percentage of the negative control (CTRL), represented by untreated cells, which was set at 100%. Data are the mean ± SD from three independent experiments, each performed in triplicate and analyzed using GraphPad Prism 5.0 (GraphPad Software Inc., San Diego, CA, USA). Statistical significance was calculated using a one-way analysis of variance (ANOVA) followed by Dunnett’s multiple comparison test. Levels of significance refer to untreated cells: * p < 0.05.
Where [6] appears, read: human recombinant MAO B on Supersomes, 10 μM, mean ± SEM.
Where [7] appears, read: human recombinant MAO A on Supersomes, 10 μM, mean ± SEM.

T3 sequence (P06276 29-602): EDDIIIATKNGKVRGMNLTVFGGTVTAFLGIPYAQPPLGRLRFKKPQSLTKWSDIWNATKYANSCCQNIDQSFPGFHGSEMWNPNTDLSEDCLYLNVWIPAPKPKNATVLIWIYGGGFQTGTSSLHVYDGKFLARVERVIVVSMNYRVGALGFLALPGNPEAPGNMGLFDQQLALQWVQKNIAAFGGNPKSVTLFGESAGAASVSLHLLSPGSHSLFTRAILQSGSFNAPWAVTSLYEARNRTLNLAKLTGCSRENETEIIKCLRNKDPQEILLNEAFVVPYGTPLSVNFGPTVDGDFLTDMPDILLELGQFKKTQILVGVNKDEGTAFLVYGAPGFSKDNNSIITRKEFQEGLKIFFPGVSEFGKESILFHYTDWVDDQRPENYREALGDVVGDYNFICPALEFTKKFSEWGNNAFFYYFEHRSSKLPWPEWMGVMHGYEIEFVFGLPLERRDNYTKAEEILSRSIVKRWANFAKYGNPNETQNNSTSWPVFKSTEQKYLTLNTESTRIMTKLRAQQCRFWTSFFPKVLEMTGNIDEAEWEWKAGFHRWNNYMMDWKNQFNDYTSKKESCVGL

With `Cc1ccc([C@@H]2c3c(c4ccccc4oc3=O)O[C@H]2c2ccccc2S(C)(=O)=O)cc1` [Compound 2a], the figures for the inhibition at 10 µM in series [1], in series [2] and in series [3] were 40 ± 8%, 47 ± 3% and 27 ± 12%, respectively. The “inhibitory activity toward hBChE (in words)” value in series [3] is reported as “very low percentage of inhibition”. Further, the midpoint of inhibition in series [4], the IC50, lay at 5.5 ± 0.7 µM. Moreover, the “precipitation in the assay conditions at higher concentrations” value (shortened to “precipitation in the assay conditions”) in series [5] is “precipitation”.

In the case of `COc1ccc([C@@H]2c3c(c4ccccc4oc3=O)O[C@H]2c2ccccc2S(C)(=O)=O)cc1` [Compound 2b], the figures for the inhibition at 10 µM in series [1], in series [2] and in series [3] were 39 ± 6%, 45 ± 1% and 29 ± 11%, respectively. Besides, in series [3], the “inhibitory activity toward hBChE (in words)” value was “very low percentage of inhibition”. The IC50 – broadly, the concentration that gives 50% inhibition – in series [4] is 6.1 ± 0.3 µM. In addition, the “precipitation in the assay conditions” value in series [5] was “precipitation”.

In the case of `CS(=O)(=O)c1ccccc1[C@@H]1Oc2c(c(=O)oc3ccccc23)[C@H]1c1ccc(Cl)cc1` [Compound 2c], the inhibition (usually the change of the read-out against control, counted positive when it falls) at 10 µM was 11 ± 6% in series [1], 16 ± 14% in series [2] and less than 5% in series [3]. Moreover, the “inhibitory activity toward hBChE (in words)” value in series [3] is given as “absence of inhibitory activities”. This compound also returned an IC50 in series [4] of 4 ± 0.7 µM.

With `CS(=O)(=O)c1ccccc1[C@@H]1Oc2c(c(=O)oc3ccccc23)[C@H]1c1cccs1` [Compound 2d], the results for the inhibition at 10 µM in series [1], in series [2] and in series [3] were 17 ± 10%, 42 ± 4% and less than 5%, respectively. For the same compound, in series [3], the “inhibitory activity toward hBChE (in words)” value is listed as “absence of inhibitory activities”. This compound returned an IC50 in series [4] of 4 ± 0.5 µM. Also, the “precipitation in the assay conditions” value in series [5] is recorded as “precipitation”.

On to `Cc1ccc(-c2c(-c3ccccc3S(C)(=O)=O)oc3c2c(=O)oc2ccccc23)cc1` [Compound 3a], for which the inhibition at 10 µM in series [1] (setting [6]) was 32%; in series [2] (setting [7]), less than 5%; in series [3] it was less than 5%. In addition, the “inhibition of MAO A activity (in words)” value in series [2] (10 μM) was “inactive”. Besides, in series [3], the “inhibitory activity toward hBChE (in words)” value is on record as “absence of inhibitory activities”. This compound yielded an IC50 in series [4] of 4.4 ± 0.5 µM.

Regarding `COc1ccc(-c2c(-c3ccccc3S(C)(=O)=O)oc3c2c(=O)oc2ccccc23)cc1` [Compound 3b], the inhibition at 10 µM is 43 ± 1% in series [1] (setting [6]), less than 5% in series [2] (setting [7]) and 19 ± 9% in series [3]. Moreover, the “inhibition of MAO A activity (in words)” value in series [2] (10 μM) is “inactive”. Moreover, in series [3], the “inhibitory activity toward hBChE (in words)” value was “very low percentage of inhibition”. In series [4], this compound displayed an IC50 of 5.7 ± 1 µM.

On to `CS(=O)(=O)c1ccccc1-c1oc2c(c1-c1cccs1)c(=O)oc1ccccc12` [Compound 3d], for which the IC50 in series [1] was 0.561 ± 0.085 µM; in series [4], 4.1 ± 0.7 µM. In addition, the results for the inhibition at 10 µM in series [2] (setting [7]) and in series [3] were less than 5% and 21 ± 3%, respectively. Also, in series [2] (10 μM), the “inhibition of MAO A activity (in words)” value is listed as “no inhibition”. In series [3], the “inhibitory activity toward hBChE (in words)” value is “very low percentage of inhibition”. Also, the “inhibition mechanism for AChE” value in series [4] (Lineweaver-Burk plots, inhibitor 0–15 μM) was “mixed-type or a non-competitive inhibition mechanism; also recorded: mixed-type kinetics; also recorded: mixed-type or non-competitive binding mode”. Moreover, the Ki (in general, the dissociation constant of the complex between target and ligand, obtained from inhibition or displacement) in series [4] (Lineweaver-Burk plots, inhibitor 0–15 μM, substrate S-acetylthiocholine 0.033 to 0.2 mM, read-out: Ki AChE) is 9.7 ± 0.6 µM.
